Results from PubChem BioAssay (NCI).
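Following 48 hours of exposure in 96-well plates, responses at five concentrations were used to interpolate endpoints linearly. Here, GI50 denotes the concentration required for 50% inhibition of growth. The concentration for full growth arrest is given as TGI.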

Key:
Test in all cases: NCI-60 cell line screen, 48 h
[1] = test system: BT-549 breast
[2] = test system: MALME-3M melanoma
[3] = test system: MCF7 breast
[4] = test system: MDA-MB-231 breast
[5] = test system: MDA-MB-435
[6] = test system: NCI-H522 lung
[7] = test system: OVCAR-4 ovarian
[8] = test system: SR leukemia
[9] = test system: T-47D breast
[10] = test system: SNB-75 CNS

Row | Structure (SMILES) | TGI [1] [µM] | TGI [2] [µM] | TGI [3] [µM] | TGI [4] [µM] | TGI [5] [µM] | TGI [6] [µM] | TGI [7] [µM] | TGI [8] [µM] | TGI [9] [µM] | TGI [10] [µM] | GI50 [1] [µM] | GI50 [2] [µM] | GI50 [4] [µM] | GI50 [5] [µM] | GI50 [10] [µM] | GI50 [8] [µM] | GI50 [6] [µM] | GI50 [7] [µM] | GI50 [3] [µM] | GI50 [9] [µM]
1 | CCCC(=O)OCC1OC(n2cc(F)c(=O)[nH]c2=O)CC1OC(=O)CCC (stereo not given) | > 10 | > 10 | > 10 | > 10 | > 10 | > 10 | > 10 | > 10 | > 10 |  |  |  |  |  |  |  |  |  |  | 
2 | CC1(Cl)C(=O)NC(=O)N([C@H]2C[C@H](O)[C@@H](CO)O2)C1N=[N+]=[N-] (stereo not given in full) |  | > 100 |  |  |  | > 100 | > 100 | > 100 |  | > 100 |  |  |  |  |  |  |  |  |  | 
3 | CC(=O)OC1(Sc2ccccc2)CC2[C@H]3COC(C)(C)O[C@H]3CC[C@@]2(C)CC1=O (stereo not given in full) |  | > 100 |  |  |  | 79.8 | > 100 | 45.4 |  | 81.4 |  |  |  |  |  |  |  |  |  | 
4 | CN(C)CCNC(=O)c1ccc2c(c1)oc1cc3ccccc3c(=O)n12 | 45.8 | 43.7 |  | 27.9 | 32.7 |  |  | > 100 |  | 27.4 | 25.9 | 23.4 | 13 | 15.1 | 11.1 | 13.4 |  |  |  | 
5 | CC(C)(C)C1=CC(=N/N=c2\scc(-c3ccccc3)n2Cc2ccccc2)C=C(C(C)(C)C)C1=O |  | > 100 |  |  |  |  | > 100 | > 100 |  | > 100 |  |  |  |  |  |  |  |  |  | 
6 | O=C(NCCCN1CCN(CCCNC(=O)c2cccc3ccccc23)CC1)c1cccc2ccccc12 |  | > 100 |  |  |  |  | > 100 |  |  | 41.7 |  |  |  |  |  |  |  |  |  | 
7 | N.N.N.N.N#N.N#N.[Cl-].[Os+6] |  | > 100 |  |  |  | > 100 | > 100 | > 100 |  | > 100 |  | > 100 |  |  | > 100 | > 100 | > 100 | > 100 |  | 
8 | S=C1SCC2CCCN12 (stereo not given) |  | > 100 |  |  |  | > 100 | > 100 | > 100 |  | > 100 |  |  |  |  |  |  |  |  |  | 
9 | O=C(c1ccccc1)c1nc2c(Cl)ccc(Cl)c2cc1C(Br)Br |  | 5.66 |  |  |  | 2.9 | 3.48 | 13.1 |  | 2.07 |  |  |  |  |  |  |  |  |  | 
10 | COc1ccc(-c2cn(C)c3c2-n2cccc2C3=O)cc1O | 23.2 | 9.28 | 20.3 | 29.8 | 3.91 | 40.8 | > 100 |  | 28.9 |  | 3.99 | 1.77 | 3.65 | 0.893 |  |  | 10.1 | 25.6 | 0.806 | 4.78
11 | COc1ccc(CCN2CCCn3c2nc2ccccc2c3=O)cc1 | > 100 | > 100 | > 100 | > 100 | 0.061 | 1.14 | > 100 | > 100 |  |  | 0.717 | 0.0538 | 0.408 | 0.022 |  | 0.0448 | 0.035 | 0.353 | 0.0295 | 
12 | COCN1COCN(C)C1=O |  | > 100 |  |  |  |  | > 100 |  |  | > 100 |  |  |  |  |  |  |  |  |  | 
13 | CC(C)(C)OC(=O)NCCCCCCCCCn1c2c(c3ccccc3c1=O)C(=O)c1ccccc1-2 | > 100 | 43 | > 100 | > 100 | > 100 | > 100 | > 100 |  | > 100 | 36.8 | 35.1 | 13.9 | 31.7 | > 100 | 11.2 |  | 44.9 | > 100 | 90 | 78.9
14 | Cc1[nH]n(-c2nc(-c3ccccc3)cc(=O)[nH]2)c(=O)c1CCO |  | > 100 | > 100 | > 100 | > 100 |  | > 100 |  | > 100 |  |  |  |  |  |  |  |  |  |  | 
15 | O=C(CC1(O)C(=O)Nc2ccccc21)c1ccc(Cl)c(Cl)c1 (stereo not given) |  |  |  |  |  | > 100 | > 100 | > 100 |  | > 100 |  |  |  |  |  |  |  |  |  | 
16 | CC(C)(C)c1cc(C2c3cc4c(cc3OC(O)(CO)C2C(=O)O)OCO4)cc(C(C)(C)C)c1O (stereo not given) (tested in a mixture with another compound) |  | 37.3 |  |  |  |  | 25.6 |  |  | 22.8 |  |  |  |  |  |  |  |  |  | 
17 | N#CN1CC[C@@H]2CC3(CCC2C1)OCCO3 (stereo not given in full) |  | > 100 |  |  |  |  | > 100 | > 100 |  | > 100 |  |  |  |  |  |  |  |  |  | 
18 | COc1ccc(C2=C(OC(C)=O)c3cccn3-c3ccc(Cl)cc3S2)cc1 |  | > 10 | > 10 | > 10 | 4.84 |  | > 10 | 7.3 | > 10 | > 10 |  |  |  |  |  |  |  |  |  | 
19 | CN(c1cccc(C(=O)O)c1)c1cc(O/N=[N+](\[O-])N(C)C)c([N+](=O)[O-])cc1[N+](=O)[O-] | > 100 |  | > 100 | > 100 | > 100 | > 100 |  | > 100 |  | > 100 | > 100 |  | > 100 | > 100 | > 100 | 56.4 | > 100 |  | 59.8 | 
20 | O=C(c1ccc(Cl)cc1Cl)N1CCN(C(=O)c2ccc(Cl)cc2Cl)C1=S | 54.2 | 62.7 | 36.7 | 38.7 | 33.7 | 38.1 | 80.9 |  | 62.6 | 61.7 | 21.1 | 25.4 | 19.1 | 16.4 | 22.3 |  | 18.2 | 25.8 | 18.3 | 19.5
21 | CN(C)CCCNc1ccnc2c([N+](=O)[O-])cccc12 |  | 8.61 |  |  |  | 38.2 | 28.5 | 96.4 |  |  |  |  |  |  |  |  |  |  |  | 
22 | CC1=CC(=O)NP(=O)(Oc2ccc(Cl)cc2)N1 (stereo not given) |  | > 100 |  |  |  | > 100 | > 100 | > 100 |  | > 100 |  |  |  |  |  |  |  |  |  | 
23 | COC(=O)NC1(NC(=O)OC)NC(=O)c2ccccc2N1 | > 100 | > 100 | > 100 | > 100 |  | > 100 | > 100 | > 100 | > 100 | > 100 |  |  |  |  |  |  |  |  |  | 
24 | CCOC(=O)c1ccc(N=Cc2ccc(N(CCC#N)S(=O)(=O)c3ccccc3)cc2C)cc1 |  | > 100 |  |  |  | > 100 | > 100 |  |  | > 100 |  |  |  |  |  |  |  |  |  | 
25 | Cc1nc(-n2nc(-c3ccccc3)cc2-c2ccccc2)sc1C(=O)CC(=O)C(=O)Nc1ccc(Cl)c(Cl)c1 |  | > 100 |  |  |  | > 100 | > 100 | > 100 |  | > 100 |  |  |  |  |  |  |  |  |  | 
